Data on five substances can be found in patent publication US20250353873A1, “COMPOUNDS AND METHODS FOR MODULATING APOE EXPRESSION” (Ionis Pharmaceuticals, Inc., priority 2024, published 2025).

A word on the pIC50: it is −log10 of the IC50, conventionally taken in molar units. Low readings indicate a high IC50, high ones a low IC50.

Data set [1] has as its system human APOE RNA. Kind of data set: Dose-dependent inhibition of human APOE RNA in HepG2 cells, electroporation, 50,000 cells per well, RT-PCR normalized to GAPDH (Example 4, Tables 8-10). The format is cell-based. To be noted: HepG2, electroporation, 16-hour treatment. Summed up: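 Readout is percent APOE RNA versus untreated controls, measured by RT-PCR (primer probe set RTS3073) and normalized to human GAPDH. Modified oligonucleotides were delivered by electroporation at varying doses into HepG2 cells plated at 50,000 per well.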

Data set [2] concerns human APOE RNA. Kind of data set: Activity in APOE C57BL/6NTac-Apoeem7250 knock-in mice, single ICV bolus, 20 weeks (Example 13). The format is in vivo. Particulars: single ICV bolus 300 μg, 20 weeks post treatment, normalized to mouse Ppia. The protocol: Modified oligonucleotides described above were tested in the APOE C57BL/6NTac-Apoeem7250 knock-in mouse model described above.
APOE C57BL/6NTac-Apoeem7250 knock-in mice were divided into groups of 4 mice each. Each mouse received a single ICV bolus of 300 μg of modified oligonucleotide. A group of 2-4 mice received a single ICV bolus with PBS as a negative control.
Twenty weeks post treatment, mice were sacrificed and RNA was extracted from cortical brain tissue and spinal cord for quantitative real-time RT-PCR analysis of RNA expression of APOE using human primer probe set RTS3073 (described herein above). APOE RNA levels were normalized to mouse Ppia. Mouse Ppia was amplified using primer probe set m_cyclo24 (described herein above). Results are presented as percent human APOE RNA relative to the amount of human APOE RNA in PBS treated animals, (% control). Each experiment is identified in separate tables below.

pIC50: −log10 of the molar value. Marks after values point to notes of the source that are not given here. Strand notation (5' to 3'): a small letter for the sugar, then the base; units joined by * are phosphorothioate-linked, units joined directly phosphodiester-linked; [ ] holds rarer units or linkages, { } end groups; capitals alone tell only the bases. e = 2'-O-(2-methoxyethyl) (MOE); k = constrained ethyl (cEt); [5mC] = 5-methylcytosine; d = 2'-deoxy (DNA)

As to “1757568 (eA*e[5mC]eTeTeG*dG*dT*dG*dA*dA*dT*d[5mC]*dT*dT*dT*kAkTeT*eA*eA; antisense) [Compound 1757568]”, the “APOE RNA (% UTC)” value is on record as 86 % UTC in the data set on human APOE RNA [1] (5 nM); 87 % UTC in the data set with human APOE RNA [1] (13 nM); 104 % UTC in the data set with human APOE RNA [1] (33 nM); 96 % UTC in the data set on human APOE RNA [1] (82 nM); 93 % UTC in the data set with human APOE RNA [1] (205 nM); 63 % UTC in the data set with human APOE RNA [1] (512 nM). In addition, the “APOE RNA (% UTC)” value with human APOE RNA [1] (1,280 nM) stood at 47 % UTC; with human APOE RNA [1] (3,200 nM), 31 % UTC; with human APOE RNA [1] (8,000 nM) it was 21 % UTC; in the data set with human APOE RNA [1] (20,000 nM), 19 % UTC. In the data set on human APOE RNA [1], the pIC50 is 5.86. In the data set on human APOE RNA [2], the “APOE RNA (% control) Cortex” value stood at 73 % control. Besides, in the data set with human APOE RNA [2], the “APOE RNA (% control) Spinal Cord” value is 58 % control.

In the case of “1757565 (eA*e[5mC]eTeTkG*dG*dT*dG*dA*dA*dT*d[5mC]*dT*dT*dT*eAeTeT*eA*eA; antisense) [Compound 1757565]”, the “APOE RNA (% UTC)” value came out at 95 % UTC with human APOE RNA [1] (5 nM); 108 % UTC in the data set with human APOE RNA [1] (13 nM); 76 % UTC in the data set with human APOE RNA [1] (33 nM); 84 % UTC in the data set on human APOE RNA [1] (82 nM); 89 % UTC with human APOE RNA [1] (205 nM); 64 % UTC with human APOE RNA [1] (512 nM). Also, the “APOE RNA (% UTC)” value in the data set with human APOE RNA [1] (1,280 nM) was 49 % UTC; in the data set with human APOE RNA [1] (3,200 nM) it was 30 % UTC; in the data set with human APOE RNA [1] (8,000 nM), 55 % UTC; with human APOE RNA [1] (20,000 nM) it was 22 % UTC. Also, the pIC50 in the data set with human APOE RNA [1] was 5.67. For the same substance, the “APOE RNA (% control) Cortex” value in the data set with human APOE RNA [2] is 82‡ % control. In the data set with human APOE RNA [2], the “APOE RNA (% control) Spinal Cord” value is 73‡ % control.

For the substance “1757554: mixed MOE/cEt gapmer TTGGTGAATCTTTATTAA, sugar kkeeeddddddddeeeee, linkages soossssssssssooss (kT*kTeGeG*eT*dG*dA*dA*dT*d[5mC]*dT*dT*dT*eAeTeT*eA*eA) [compound 1757554]”, the “APOE RNA (% UTC)” value in the data set on human APOE RNA [1] (5 nM) stood at 91 % UTC; in the data set with human APOE RNA [1] (13 nM) it was 113 % UTC; in the data set on human APOE RNA [1] (33 nM), 101 % UTC; in the data set with human APOE RNA [1] (82 nM) it was 106 % UTC; with human APOE RNA [1] (205 nM) it was 89 % UTC; in the data set with human APOE RNA [1] (512 nM), 71 % UTC. For the same substance, the “APOE RNA (% UTC)” value is 52 % UTC in the data set with human APOE RNA [1] (1,280 nM), 27 % UTC in the data set with human APOE RNA [1] (3,200 nM), 28 % UTC in the data set on human APOE RNA [1] (8,000 nM) and 13 % UTC in the data set on human APOE RNA [1] (20,000 nM). Also, the negative logarithm of the IC50 (pIC50) in the data set with human APOE RNA [1] was 5.80. Besides, in the data set with human APOE RNA [2], the “APOE RNA (% control) Cortex” value is 95 % control. Besides, in the data set on human APOE RNA [2], the “APOE RNA (% control) Spinal Cord” value turned out to be 68 % control.

Consider “1757551: mixed MOE/cEt gapmer TTGGTGAATCTTTATTAA, sugar eeekkddddddddeeeee, linkages soossssssssssooss (eT*eTeGkG*kT*dG*dA*dA*dT*d[5mC]*dT*dT*dT*eAeTeT*eA*eA) [compound 1757551]”, for which the “APOE RNA (% UTC)” value in the data set on human APOE RNA [1] (5 nM) is 91 % UTC; in the data set on human APOE RNA [1] (13 nM), 248 % UTC; in the data set on human APOE RNA [1] (33 nM), 88 % UTC; in the data set on human APOE RNA [1] (82 nM), 55 % UTC; with human APOE RNA [1] (205 nM) it was 52 % UTC; in the data set on human APOE RNA [1] (512 nM) it was 41 % UTC. For the same substance, the “APOE RNA (% UTC)” value in the data set on human APOE RNA [1] (1,280 nM) came out at 35 % UTC; in the data set on human APOE RNA [1] (3,200 nM), 29 % UTC; in the data set on human APOE RNA [1] (8,000 nM) it was 14 % UTC; with human APOE RNA [1] (20,000 nM) it was 9 % UTC. In the data set with human APOE RNA [1], this substance gave a negative logarithm of the IC50 (pIC50) of 6.37. Also, the “APOE RNA (% control) Cortex” value in the data set with human APOE RNA [2] worked out at 93 % control. Besides, the “APOE RNA (% control) Spinal Cord” value with human APOE RNA [2] amounted to 53 % control.

On to “1757541: mixed MOE/cEt gapmer TTGGTGAATCTTTATTAA, sugar eeeekddddddddeeeee, linkages soossssssssssooss (eT*eTeGeG*kT*dG*dA*dA*dT*d[5mC]*dT*dT*dT*eAeTeT*eA*eA) [compound 1757541]”, for which the “APOE RNA (% UTC)” value in the data set on human APOE RNA [1] (5 nM) stood at 104 % UTC; in the data set on human APOE RNA [1] (13 nM), 103 % UTC; in the data set on human APOE RNA [1] (33 nM) it was 100 % UTC; in the data set with human APOE RNA [1] (82 nM), 99 % UTC; with human APOE RNA [1] (205 nM), 91 % UTC; in the data set with human APOE RNA [1] (512 nM), 66 % UTC. Moreover, the “APOE RNA (% UTC)” value is recorded as 60 % UTC in the data set with human APOE RNA [1] (1,280 nM), 38 % UTC in the data set with human APOE RNA [1] (3,200 nM), 22 % UTC in the data set on human APOE RNA [1] (8,000 nM) and 8 % UTC with human APOE RNA [1] (20,000 nM). Also, in the data set on human APOE RNA [1], the pIC50 is 5.75. Besides, the “APOE RNA (% control) Cortex” value with human APOE RNA [2] came to 88 % control. For the same substance, in the data set with human APOE RNA [2], the “APOE RNA (% control) Spinal Cord” value stood at 80 % control.
